{
  "source": "patent US8796289B2",
  "about": "(AbbVie Inc., priority 2011, dated 2014)",
  "molecular_target": "GST-tagged-Wee1 kinase (Homo sapiens, UniProt P30291)",
  "sequence (P30291 whole entry)": "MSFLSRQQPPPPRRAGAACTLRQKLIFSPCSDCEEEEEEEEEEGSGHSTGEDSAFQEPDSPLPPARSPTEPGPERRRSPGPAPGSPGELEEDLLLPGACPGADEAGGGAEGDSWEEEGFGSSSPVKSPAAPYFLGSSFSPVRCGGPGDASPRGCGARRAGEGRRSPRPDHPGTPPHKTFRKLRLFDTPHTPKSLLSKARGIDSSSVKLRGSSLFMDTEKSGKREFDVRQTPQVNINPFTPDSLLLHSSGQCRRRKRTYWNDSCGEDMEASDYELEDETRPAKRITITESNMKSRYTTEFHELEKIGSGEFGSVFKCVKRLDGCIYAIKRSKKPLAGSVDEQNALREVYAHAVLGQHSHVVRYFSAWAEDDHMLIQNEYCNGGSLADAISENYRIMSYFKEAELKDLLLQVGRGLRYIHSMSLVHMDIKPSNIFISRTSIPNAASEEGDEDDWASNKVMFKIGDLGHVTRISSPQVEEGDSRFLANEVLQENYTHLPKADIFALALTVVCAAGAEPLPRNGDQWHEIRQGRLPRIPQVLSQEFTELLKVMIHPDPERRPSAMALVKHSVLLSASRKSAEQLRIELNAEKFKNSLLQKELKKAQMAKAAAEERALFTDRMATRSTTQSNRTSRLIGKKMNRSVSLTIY",
  "assay": "Wee1 time-resolved fluorescence equilibrium binding assay (displacement of Oregon Green-labeled ATP-competitive kinase probe)",
  "method": "Wee1 kinase was assayed using a time-resolved fluorescence equilibrium binding assay monitoring displacement of a rapidly reversible Oregon Green-labeled ATP-competitive kinase probe (N-(2-(2-(2-(4-(4-(5-chloro-4-(2-(1-hydroxycyclobutyl)thiazol-5-yl)-1H-pyrrolo[2,3-b]pyridin-2-yl)phenyl)piperazin-1-yl)ethoxy)ethoxy)ethyl)-2′,7′-difluoro-3′,6′-dihydroxy-3-oxo-3H-spiro[isobenzofuran-1,9′-xanthene]-5-carboxamide) by competitive Wee1 inhibitors.",
  "data": [
    {"compound": "C=CCn1nc(-c2ccco2)c2nc(Nc3ccc(CN(C)C)cc3)ncc2c1=O", "note": "[Example 137, 6-allyl-2-({4-[(dimethylamino)methyl]phenyl}amino)-8-(2-furyl)pyrimido[4,5-d]pyridazin-5(6H)-one]", "values": [
      {"measurement": "Ki", "result": 22, "unit": "nM"}
    ]},
    {"compound": "COc1cc(Nc2ncc3c(=O)n(-c4ccccc4C)nc(-c4ccco4)c3n2)ccc1N1CCN(C(C)C)CC1", "note": "[Example 138, 8-(2-furyl)-2-{[4-(4-isopropylpiperazin-1-yl)-3-methoxyphenyl]amino}-6-(2-methylphenyl)pyrimido[4,5-d]pyridazin-5(6H)-one]", "values": [
      {"measurement": "Ki", "result": 1.5, "unit": "nM"}
    ]},
    {"compound": "C=CCn1nc(-c2ccccc2)c2nc(Nc3ccc(N4CCN(C(C)C)CC4)cc3)ncc2c1=O", "note": "[Example 139, 6-allyl-2-{[4-(4-isopropylpiperazin-1-yl)phenyl]amino}-8-phenylpyrimido[4,5-d]pyridazin-5(6H)-one]", "values": [
      {"measurement": "Ki", "result": 5, "unit": "nM"}
    ]},
    {"compound": "C=CCn1nc(-c2ccco2)c2nc(Nc3ccc(S(=O)(=O)N4CCOCC4)cc3)ncc2c1=O", "note": "[Example 140, 6-allyl-8-(2-furyl)-2-{[4-(morpholin-4-ylsulfonyl)phenyl]amino}pyrimido[4,5-d]pyridazin-5(6H)-one]", "values": [
      {"measurement": "Ki", "result": "> 3140", "unit": "nM"}
    ]},
    {"compound": "Cc1ccccc1-n1nc(-c2ccccc2)c2nc(Nc3ccc(N4CCCC4=O)cc3)ncc2c1=O", "note": "[Example 141, 6-(2-methylphenyl)-2-{[4-(2-oxopyrrolidin-1-yl)phenyl]amino}-8-phenylpyrimido[4,5-d]pyridazin-5(6H)-one]", "values": [
      {"measurement": "Ki", "result": 7, "unit": "nM"}
    ]},
    {"compound": "C=CCn1nc(-c2ccccc2)c2nc(Nc3ccc(N4CCCC4=O)cc3)ncc2c1=O", "note": "[Example 142, 6-allyl-2-{[4-(2-oxopyrrolidin-1-yl)phenyl]amino}-8-phenylpyrimido[4,5-d]pyridazin-5(6H)-one]", "values": [
      {"measurement": "Ki", "result": 57, "unit": "nM"}
    ]},
    {"compound": "C=CCn1nc(-c2ccccc2)c2nc(Nc3ccc(CN(C)C)cc3)ncc2c1=O", "note": "[Example 143, 6-allyl-2-({4-[(dimethylamino)methyl]phenyl}amino)-8-phenylpyrimido[4,5-d]pyridazin-5(6H)-one]", "values": [
      {"measurement": "Ki", "result": 39, "unit": "nM"}
    ]},
    {"compound": "C=CCn1nc(-c2ccco2)c2nc(Nc3ccc4c(c3)CN(C)CC43CC3)ncc2c1=O", "note": "[Example 144, 6-allyl-8-(2-furyl)-2-[(2′-methyl-2′,3′-dihydro-1′H-spiro[cyclopropane-1,4′-isoquinolin]-7′-yl)amino]pyrimido[4,5-d]pyridazin-5(6H)-one]", "values": [
      {"measurement": "Ki", "result": 2, "unit": "nM"}
    ]},
    {"compound": "Cc1ccccc1-n1nc(-c2ccco2)c2nc(Nc3ccc4c(c3)CN(C)CC43CC3)ncc2c1=O", "note": "[Example 145, 8-(2-furyl)-2-[(2′-methyl-2′,3′-dihydro-1′H-spiro[cyclopropane-1,4′-isoquinolin]-7′-yl)amino]-6-(2-methylphenyl)pyrimido[4,5-d]pyridazin-5(6H)-one]", "values": [
      {"measurement": "Ki", "result": 0.3, "unit": "nM"}
    ]},
    {"compound": "C=CCn1nc(-c2ccco2)c2nc(Nc3ccc(N4CCN(C(C)C)CC4)c(C)c3)ncc2c1=O", "note": "[Example 146, 6-allyl-8-(2-furyl)-2-{[4-(4-isopropylpiperazin-1-yl)-3-methylphenyl]amino}pyrimido[4,5-d]pyridazin-5(6H)-one]", "values": [
      {"measurement": "Ki", "result": 3, "unit": "nM"}
    ]},
    {"compound": "CC(C)N1CCCC(c2nn(-c3c(Cl)cccc3Cl)c(=O)c3cnc(Nc4ccc(N5CCN(C)CC5)cc4)nc23)C1", "note": "(stereo not drawn) [Example 147, 6-(2,6-dichlorophenyl)-8-(1-isopropylpiperidin-3-yl)-2-{[4-(4-methylpiperazin-1-yl)phenyl]amino}pyrimido[4,5-d]pyridazin-5(6H)-one]", "values": [
      {"measurement": "Ki", "result": 12, "unit": "nM"}
    ]},
    {"compound": "CN1CCN(c2ccc(Nc3ncc4c(=O)n(-c5c(Cl)cccc5Cl)nc(C5CCNCC5)c4n3)cc2)CC1", "note": "[Example 148, 6-(2,6-dichlorophenyl)-2-{[4-(4-methylpiperazin-1-yl)phenyl]amino}-8-(piperidin-4-yl)pyrimido[4,5-d]pyridazin-5(6H)-one]", "values": [
      {"measurement": "Ki", "result": 16, "unit": "nM"}
    ]},
    {"compound": "CN1Cc2cc(Nc3ncc4c(=O)n(-c5c(Cl)cccc5Cl)nc(-c5cnn(C)c5)c4n3)ccc2C2(CC2)C1", "note": "[Example 149, 6-(2,6-dichlorophenyl)-2-[(2′-methyl-2′,3′-dihydro-1′H-spiro[cyclopropane-1,4′-isoquinolin]-7′-yl)amino]-8-(1-methyl-1H-pyrazol-4-yl)pyrimido[4,5-d]pyridazin-5(6H)-one]", "values": [
      {"measurement": "Ki", "result": 0.05, "unit": "nM"}
    ]},
    {"compound": "Cc1cc(Nc2ncc3c(=O)n(-c4c(Cl)cccc4Cl)nc(-c4cnn(C)c4)c3n2)ccc1N1CCCN(C)CC1", "note": "[Example 150, 6-(2,6-dichlorophenyl)-2-{[3-methyl-4-(4-methyl-1,4-diazepan-1-yl)phenyl]amino}-8-(1-methyl-1H-pyrazol-4-yl)pyrimido[4,5-d]pyridazin-5(6H)-one]", "values": [
      {"measurement": "Ki", "result": 0.1, "unit": "nM"}
    ]},
    {"compound": "CN1CCN(c2ccc(Nc3ncc4c(=O)n(-c5c(Cl)cccc5Cl)nc(-c5ccn(C)n5)c4n3)cc2)CC1", "note": "[Example 151, 6-(2,6-dichlorophenyl)-2-{[4-(4-methylpiperazin-1-yl)phenyl]amino}-8-(1-methyl-1H-pyrazol-3-yl)pyrimido[4,5-d]pyridazin-5(6H)-one]", "values": [
      {"measurement": "Ki", "result": 0.07, "unit": "nM"}
    ]},
    {"compound": "Cc1cc(Nc2ncc3c(=O)n(-c4c(Cl)cccc4Cl)nc(-c4ccn(C)n4)c3n2)ccc1N1CCCN(C)CC1", "note": "[Example 152, 6-(2,6-dichlorophenyl)-2-{[3-methyl-4-(4-methyl-1,4-diazepan-1-yl)phenyl]amino}-8-(1-methyl-1H-pyrazol-3-yl)pyrimido[4,5-d]pyridazin-5(6H)-one]", "values": [
      {"measurement": "Ki", "result": 0.04, "unit": "nM"}
    ]},
    {"compound": "CN1Cc2cc(Nc3ncc4c(=O)n(-c5c(Cl)cccc5Cl)nc(-c5ccn(C)n5)c4n3)ccc2C2(CC2)C1", "note": "[Example 153, 6-(2,6-dichlorophenyl)-2-[(2′-methyl-2′,3′-dihydro-1′H-spiro[cyclopropane-1,4′-isoquinolin]-7′-yl)amino]-8-(1-methyl-1H-pyrazol-3-yl)pyrimido[4,5-d]pyridazin-5(6H)-one]", "values": [
      {"measurement": "Ki", "result": 0.05, "unit": "nM"}
    ]},
    {"compound": "CN1CCN(c2ccc(Nc3ncc4c(=O)n(-c5ccccc5)nc(-c5ccncc5)c4n3)cc2)CC1", "note": "[Example 154, 2-{[4-(4-methylpiperazin-1-yl)phenyl]amino}-6-phenyl-8-(pyridin-4-yl)pyrimido[4,5-d]pyridazin-5(6H)-one]", "values": [
      {"measurement": "Ki", "result": 9, "unit": "nM"}
    ]},
    {"compound": "CN1CCN(c2ccc(Nc3ncc4c(=O)n(-c5ccccc5Cl)nc(-c5ccncc5)c4n3)cc2)CC1", "note": "[Example 155, 6-(2-chlorophenyl)-2-{[4-(4-methylpiperazin-1-yl)phenyl]amino}-8-(pyridin-4-yl)pyrimido[4,5-d]pyridazin-5(6H)-one]", "values": [
      {"measurement": "Ki", "result": 0.4, "unit": "nM"}
    ]},
    {"compound": "CN1CCN(c2ccc(Nc3ncc4c(=O)n(-c5c(Cl)cccc5Cl)nc(-c5ccncc5)c4n3)cc2)CC1", "note": "[Example 156, 6-(2,6-dichlorophenyl)-2-{[4-(4-methylpiperazin-1-yl)phenyl]amino}-8-(pyridin-4-yl)pyrimido[4,5-d]pyridazin-5(6H)-one]", "values": [
      {"measurement": "Ki", "result": 0.03, "unit": "nM"}
    ]},
    {"compound": "CN1CCN(c2ccc(Nc3ncc4c(=O)n(-c5c(Cl)cccc5Cl)nc(-c5cccc(CN6CCCCC6)c5)c4n3)cc2)CC1", "note": "[Example 157, 6-(2,6-dichlorophenyl)-2-{[4-(4-methylpiperazin-1-yl)phenyl]amino}-8-[3-(piperidin-1-ylmethyl)phenyl]pyrimido[4,5-d]pyridazin-5(6H)-one]", "values": [
      {"measurement": "Ki", "result": 0.05, "unit": "nM"}
    ]},
    {"compound": "CN1CCN(c2ccc(Nc3ncc4c(=O)n(-c5c(Cl)cccc5Cl)nc(-c5cccc(CNC6CCC6)c5)c4n3)cc2)CC1", "note": "[Example 158, 8-{3-[(cyclobutylamino)methyl]phenyl}-6-(2,6-dichlorophenyl)-2-{[4-(4-methylpiperazin-1-yl)phenyl]amino}pyrimido[4,5-d]pyridazin-5(6H)-one]", "values": [
      {"measurement": "Ki", "result": 0.2, "unit": "nM"}
    ]},
    {"compound": "COC(=O)c1cccc(-c2nn(-c3c(Cl)cccc3Cl)c(=O)c3cnc(Nc4ccc(N5CCN(C)CC5)cc4)nc23)n1", "note": "[Example 159, methyl 6-[6-(2,6-dichlorophenyl)-2-{[4-(4-methylpiperazin-1-yl)phenyl]amino}-5-oxo-5,6-dihydropyrimido[4,5-d]pyridazin-8-yl]pyridine-2-carboxylate]", "values": [
      {"measurement": "Ki", "result": 0.06, "unit": "nM"}
    ]},
    {"compound": "CN1CCN(c2ccc(Nc3ncc4c(=O)n(-c5c(Cl)cccc5Cl)nc(-c5cccc(C(C)(C)O)n5)c4n3)cc2)CC1", "note": "[Example 160, 6-(2,6-dichlorophenyl)-8-[6-(2-hydroxypropan-2-yl)pyridin-2-yl]-2-{[4-(4-methylpiperazin-1-yl)phenyl]amino}pyrimido[4,5-d]pyridazin-5(6H)-one]", "values": [
      {"measurement": "Ki", "result": 0.1, "unit": "nM"}
    ]},
    {"compound": "C=CCn1nc(-c2cccs2)c2nc(Nc3ccc(N4CCN(C(C)C)CC4)c(OC)c3)ncc2c1=O", "note": "[Example 161, 6-allyl-2-{[4-(4-isopropylpiperazin-1-yl)-3-methoxyphenyl]amino}-8-(2-thienyl)pyrimido[4,5-d]pyridazin-5(6H)-one]", "values": [
      {"measurement": "Ki", "result": 3, "unit": "nM"}
    ]},
    {"compound": "C=CCn1nc(-c2cccs2)c2nc(Nc3ccc4c(c3)CN(C)CC4)ncc2c1=O", "note": "[Example 162, 6-allyl-2-[(2-methyl-1,2,3,4-tetrahydroisoquinolin-7-yl)amino]-8-(2-thienyl)pyrimido[4,5-d]pyridazin-5(6H)-one]", "values": [
      {"measurement": "Ki", "result": 4, "unit": "nM"}
    ]},
    {"compound": "C=CCn1nc(-c2cccs2)c2nc(Nc3ccc(N4CCCN(C(C)C)CC4)c(C)c3)ncc2c1=O", "note": "[Example 163, 6-allyl-2-{[4-(4-isopropyl-1,4-diazepan-1-yl)-3-methylphenyl]amino}-8-(2-thienyl)pyrimido[4,5-d]pyridazin-5(6H)-one]", "values": [
      {"measurement": "Ki", "result": 4, "unit": "nM"}
    ]},
    {"compound": "Cc1ccccc1-n1nc(-c2cccs2)c2nc(Nc3ccc4c(c3)CN(C)CC4)ncc2c1=O", "note": "[Example 164, 6-(2-methylphenyl)-2-[(2-methyl-1,2,3,4-tetrahydroisoquinolin-7-yl)amino]-8-(2-thienyl)pyrimido[4,5-d]pyridazin-5(6H)-one]", "values": [
      {"measurement": "Ki", "result": 0.5, "unit": "nM"}
    ]},
    {"compound": "O=c1c2cnc(Nc3ccc(S(=O)(=O)N4CCOCC4)cc3)nc2c(-c2cccs2)nn1-c1ccccc1Cl", "note": "[Example 165, 6-(2-chlorophenyl)-2-{[4-(morpholin-4-ylsulfonyl)phenyl]amino}-8-(2-thienyl)pyrimido[4,5-d]pyridazin-5(6H)-one]", "values": [
      {"measurement": "Ki", "result": "> 3140", "unit": "nM"}
    ]},
    {"compound": "CN1CCc2ccc(Nc3ncc4c(=O)n(-c5ccccc5Cl)nc(-c5cccs5)c4n3)cc2C1", "note": "[Example 167, 6-(2-chlorophenyl)-2-[(2-methyl-1,2,3,4-tetrahydroisoquinolin-7-yl)amino]-8-(2-thienyl)pyrimido[4,5-d]pyridazin-5(6H)-one]", "values": [
      {"measurement": "Ki", "result": 0.4, "unit": "nM"}
    ]}
  ]
}
